Earlier results, collected in patent publication US20090306403A1, “Production Process for Bicyclic Tetrahydropyrrole Compounds” (priority 2006, published 2009).

Assays:
[1] = target: sigma 1 (σ-1) site (Homo sapiens, UniProt Q99720); conditions: background statement in words
[2] = target: sigma (σ-2) site (Homo sapiens, UniProt Q5BJF2); conditions: background statement in words
Chain of sigma (σ-2) site (Q5BJF2 whole entry): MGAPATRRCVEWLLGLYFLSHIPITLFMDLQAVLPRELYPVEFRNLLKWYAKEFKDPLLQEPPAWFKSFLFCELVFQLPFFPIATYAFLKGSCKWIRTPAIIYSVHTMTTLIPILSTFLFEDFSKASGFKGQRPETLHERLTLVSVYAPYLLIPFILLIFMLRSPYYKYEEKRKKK

Chain of sigma 1 (σ-1) site (Q99720 whole entry): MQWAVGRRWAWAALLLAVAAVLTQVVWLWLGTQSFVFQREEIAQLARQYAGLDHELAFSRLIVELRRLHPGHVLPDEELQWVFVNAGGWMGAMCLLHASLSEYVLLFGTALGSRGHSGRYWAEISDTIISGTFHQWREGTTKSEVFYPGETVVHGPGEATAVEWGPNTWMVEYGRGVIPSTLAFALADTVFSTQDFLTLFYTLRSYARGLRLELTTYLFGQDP

In the case of SKF 10047, the “affinity for the sigma 1 (σ-1) site” value [1] is given as “nanomolar affinity” and the “affinity for the sigma (σ-2) site” value [2] is given as “micromolar affinity”.
